Experimental data published in patent US12528814B2, “Bifunctional degraders of interleukin-1 receptor-associated kinases and therapeutic use thereof” (NURIX THERAPEUTICS, INC., priority 2020, dated 2026).
Like-named read-outs stand apart in the source and are kept apart here.

How the values were obtained:
IRAK4 [1] = biological target: T1, IRAK4 (Homo sapiens (Human), UniProt Q9NWZ3); test: IRAK4 Biochemical HTRF Kinase Assay; conditions: read-out: IRAK4 HTRF biochemical: IC50
Summary of the method: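 IC50 values derive from non-linear regression of sixteen concentrations in duplicate. Kinase reaction ran 90 min at ambient temperature after adding 5 μM STK-S1 substrate, 10 mM ATP and 10 mM MgCl2 (reaction-solution levels, pre-dilution to 10 μl); phospho-peptide detected by HTRF after 60 min.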
Target sequence in this assay (Q9NWZ3 whole entry, species assumed): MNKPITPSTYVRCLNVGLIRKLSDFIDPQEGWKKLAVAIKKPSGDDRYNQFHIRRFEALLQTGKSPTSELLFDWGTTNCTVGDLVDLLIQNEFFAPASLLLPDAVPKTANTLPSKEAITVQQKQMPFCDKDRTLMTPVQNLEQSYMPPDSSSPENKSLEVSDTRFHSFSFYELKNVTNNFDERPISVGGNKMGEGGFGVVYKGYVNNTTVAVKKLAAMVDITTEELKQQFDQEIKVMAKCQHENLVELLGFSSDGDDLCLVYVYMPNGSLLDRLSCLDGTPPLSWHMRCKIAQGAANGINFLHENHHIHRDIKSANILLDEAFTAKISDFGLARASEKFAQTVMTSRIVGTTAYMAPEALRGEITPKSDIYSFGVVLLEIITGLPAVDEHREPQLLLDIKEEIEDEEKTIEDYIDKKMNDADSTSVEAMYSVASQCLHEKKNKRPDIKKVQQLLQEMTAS

IRAK4 [2] = biological target: T1, IRAK4; test: IRAK4 Degradation HiBiT Assay; conditions: HiBiT-tagged Jurkat cells, 4 hrs; for Dmax: Jurkat; for DC50: read-out: Cellular IRAK4 HiBiT: DC50
Target sequence in this assay (Q9NWZ3 whole entry): as the sequence (Q9NWZ3 whole entry, species assumed) above
Protocol: Compound dilution series (11-point, 3.16-fold dilutions in DMSO, columns 1-11 and 12-22) at 500× the final required concentrations were prepared in Labcyte LDV 384-well plates (cat. no. LP-0200) using a Labcyte Echo 550 Liquid Handler. The 500× solutions ranged from 5 mM to 0.5 μM (final assay concentration range 10 μM to 0.1 nM). Using the Echo, the 500× solutions were stamped into white, 384-well assay plates (Corning, cat. no. 3570) at 60 nL/well. […] C-terminal HiBiT-tagged Jurkat cells (polyclonal cell line or clone 8D5) were plated at 1×10^6 cells/mL, 30 μL/well (3×10^4 cells/well) in complete RPMI (10% FBS, 1% L-glutamine). Cells were incubated for 4 hrs at 32° C./6% CO2.
Following incubation, 30 uL of complete Nano-Glo HiBiT Lytic Detection Reagent (Nano-Glo HiBiT Lytic Buffer with 1:50 Nano-Glo HiBiT Lytic Substrate and 1:100 LgBiT Protein; Promega cat. no. N3040) was added. Cells were further incubated for 10 min at room temperature (RT). Luminescence units (LU) were read on an EnVision plate reader (Perkin Elmer, 0.1 sec per well). Percent IRAK4 remaining per sample was calculated as follows:
Using Graphpad Prism, % IRAK4 remaining values were plotted as a function of compound concentration.

[3] = read-out: Cellular IRAK4 HiBiT: Dmax, Table 4
[4] = read-out: Cellular IRAK4 HiBiT: Dmax, Table 5, multiple runs

Structure (SMILES) | IC50 (IRAK4 [1]; Table 4) | IC50 (IRAK4 [1]; Table 5, multiple runs) | Dmax (IRAK4 [2]; [3]) | Dmax (IRAK4 [2]; [4]) | DC50 (IRAK4 [2]; Table 4) | DC50 (IRAK4 [2]; Table 5, multiple runs)
CC(C)Nc1cc(-c2ccc3cc(C#N)cnn23)ncc1-c1nnc(N2CCN(C(=O)CN3CCC4(CC3)CN(c3ccc5c(c3)C(=O)N(C3CCC(=O)NC3=O)C5=O)C4)CC2)s1 (stereo not shown) [Example 15, 7-(5-(5-(4-(2-(2-(2-(2,6-dioxopiperidin-3-yl)-1,3-dioxoisoindolin-5-yl)-2,7-diazaspiro[3.5]nonan-7-yl)acetyl)piperazin-1-yl)-1,3,4-thiadiazol-2-yl)-4-(isopropylamino)pyridin-2-yl)pyrrolo[1,2-b]pyridazine-3-carbonitrile] | 1 nM | 1 nM | 81% | 85% | 82.7 nM | 86.9 nM
CNc1cc(-c2ccc3cc(C#N)cnn23)ncc1-c1nnc(N2CCN(C(=O)C[C@@H]3CCCN(c4cccc5c4C(=O)N(C4CCC(=O)NC4=O)C5=O)C3)CC2)s1 (stereo partly drawn) [Example 88, 7-(5-(5-(4-(2-((3S)-1-(2-(2,6-dioxopiperidin-3-yl)-1,3-dioxoisoindolin-4-yl)piperidin-3-yl)acetyl)piperazin-1-yl)-1,3,4-thiadiazol-2-yl)-4-(methylamino)pyridin-2-yl)pyrrolo[1,2-b]pyridazine-3-carbonitrile] |  | 1.4 nM |  |  |  | > 3330 nM
CC(C)Nc1cc(-c2ccc3cc(C#N)cnn23)ncc1-c1nnc(N2CCN(C(=O)C3CCN(C(=O)CNc4cccc5c4C(=O)N(C4CCC(=O)NC4=O)C5=O)CC3)CC2)s1 (stereo not shown) [Example 73, 7-(5-(5-(4-(1-((2-(2,6-dioxopiperidin-3-yl)-1,3-dioxoisoindolin-4-yl)glycyl)piperidine-4-carbonyl)piperazin-1-yl)-1,3,4-thiadiazol-2-yl)-4-(isopropylamino)pyridin-2-yl)pyrrolo[1,2-b]pyridazine-3-carbonitrile] |  | 1.9 nM |  | 69% |  | 25.2 nM
Cc1ncsc1-c1ccc(CNC(=O)[C@@H]2C[C@@H](O)CN2C(=O)[C@@H](NC(=O)C2(F)CC2)C(C)(C)C)c(OCC(=O)N2CCC(C(=O)N3CCN(c4nnc(-c5cnc(-c6ccc7cc(C#N)cnn67)cc5NC(C)C)s4)CC3)CC2)c1 [Example 80, (2S,4R)—N-(2-(2-(4-(4-(5-(6-(3-cyanopyrrolo[1,2-b]pyridazin-7-yl)-4-(isopropylamino)pyridin-3-yl)-1,3,4-thiadiazol-2-yl)piperazine-1-carbonyl)piperidin-1-yl)-2-oxoethoxy)-4-(4-methylthiazol-5-yl)benzyl)-1-((S)-2-(1-fluorocyclopropane-1-carboxamido)-3,3-dimethylbutanoyl)-4-hydroxypyrrolidine-2-carboxamide] |  | 3.7 nM |  | 115% |  | 313 nM
Cc1ncsc1-c1ccc([C@H](C)NC(=O)[C@@H]2C[C@@H](O)CN2C(=O)[C@@H](NC(=O)CCCCCCCC(=O)N2CCN(c3nnc(-c4cnc(-c5ccc6cc(C#N)cnn56)cc4NC(C)C)s3)CC2)C(C)(C)C)cc1 [Example 36, (2S,4R)-1-((S)-2-(9-(4-(5-(6-(3-cyanopyrrolo[1,2-b]pyridazin-7-yl)-4-(isopropylamino)pyridin-3-yl)-1,3,4-thiadiazol-2-yl)piperazin-1-yl)-9-oxononanamido)-3,3-dimethylbutanoyl)-4-hydroxy-N—((S)-1-(4-(4-methylthiazol-5-yl)phenyl)ethyl)pyrrolidine-2-carboxamide] | 13.4 nM | 13.4 nM | 84% | 85% | 315 nM | 287 nM
CCN(C(=O)C[C@H](NC(=O)[C@@H]1C[C@@H](O)CN1C(=O)C(c1cc(C)no1)C(C)C)c1ccc(-c2scnc2C)cc1)[C@H]1CC[C@H](c2nnc(-c3cnc(-c4ccc5cc(C#N)cnn45)cc3NC)s2)CC1 (stereo partly drawn) [Example 192, (2S,4R)—N—((S)-3-(((1r,4S)-4-(5-(6-(3-cyanopyrrolo[1,2-b]pyridazin-7-yl)-4-(methylamino)pyridin-3-yl)-1,3,4-thiadiazol-2-yl)cyclohexyl)(ethyl)amino)-1-(4-(4-methylthiazol-5-yl)phenyl)-3-oxopropyl)-4-hydroxy-1-(3-methyl-2-(3-methylisoxazol-5-yl)butanoyl)pyrrolidine-2-carboxamide] |  | 1.4 nM |  | 103% |  | 50.6 nM
CNc1cc(-c2ccc3cc(C#N)cnn23)ncc1-c1nnc(N2CC3(CCN(CC4CCN(c5ccc(C(=O)NC6CCC(=O)NC6=O)cc5)CC4)CC3)C2)s1 (stereo not shown) [Example 182, 4-(4-((2-(5-(6-(3-cyanopyrrolo[1,2-b]pyridazin-7-yl)-4-(methylamino)pyridin-3-yl)-1,3,4-thiadiazol-2-yl)-2,7-diazaspiro[3.5]nonan-7-yl)methyl)piperidin-1-yl)-N-(2,6-dioxopiperidin-3-yl)benzamide] |  | 0.5 nM |  | 120% |  | 159 nM
CNc1cc(-c2ccc3cc(C#N)cnn23)ncc1-c1nnc(N2CCCC3(CN(Cc4ccc5c(c4)CN(C4CCC(=O)NC4=O)C5=O)C3)C2)s1 (stereo not shown) [Example 123, 7-(5-(5-(2-((2-(2,6-dioxopiperidin-3-yl)-1-oxoisoindolin-5-yl)methyl)-2,6-diazaspiro[3.5]nonan-6-yl)-1,3,4-thiadiazol-2-yl)-4-(methylamino)pyridin-2-yl)pyrrolo[1,2-b]pyridazine-3-carbonitrile] |  | 2.1 nM |  |  |  | > 9980 nM
CNc1cc(-c2ccc3cc(C#N)cnn23)ncc1-c1nnc([C@H]2CC[C@H](NC(=O)CCC(=O)N[C@H](C(=O)N3C[C@H](O)C[C@H]3C(=O)N[C@@H](C)c3ccc(Br)cc3)C(C)(C)C)CC2)s1 [Example 172, N1—((S)-1-((2S,4R)-2-(((S)-1-(4-bromophenyl)ethyl)carbamoyl)-4-hydroxypyrrolidin-1-yl)-3,3-dimethyl-1-oxobutan-2-yl)-N4-((1r,4S)-4-(5-(6-(3-cyanopyrrolo[1,2-b]pyridazin-7-yl)-4-(methylamino)pyridin-3-yl)-1,3,4-thiadiazol-2-yl)cyclohexyl)succinamide] |  | 1.5 nM |  | 28% |  | 2520 nM
CC(C)Nc1cc(-c2ccc3cc(C#N)cnn23)ncc1-c1nnc(N2CCN(CC3CCN(c4cccc5c4n(C)c(=O)n5C4CCC(=O)NC4=O)CC3)CC2)s1 (stereo not shown) [Example 32, 7-(5-(5-(4-((1-(1-(2,6-dioxopiperidin-3-yl)-3-methyl-2-oxo-2,3-dihydro-1H-benzo[d]imidazol-4-yl)piperidin-4-yl)methyl)piperazin-1-yl)-1,3,4-thiadiazol-2-yl)-4-(isopropylamino)pyridin-2-yl)pyrrolo[1,2-b]pyridazine-3-carbonitrile] | 2.3 nM | 2.5 nM | 37% | 37% | 152 nM | 153 nM
CNc1cc(-c2ccc3cc(C#N)cnn23)ncc1-c1nnc(N2CCC(NC(=O)CCC(=O)N[C@H](C(=O)N3C[C@H](O)C[C@H]3C(=O)N[C@@H](C)c3ccc(-c4scnc4C)cc3)C(C)(C)C)CC2)s1 [Example 158, N1-(1-(5-(6-(3-cyanopyrrolo[1,2-b]pyridazin-7-yl)-4-(methylamino)pyridin-3-yl)-1,3,4-thiadiazol-2-yl)piperidin-4-yl)-N4—((S)-1-((2S,4R)-4-hydroxy-2-(((S)-1-(4-(4-methylthiazol-5-yl)phenyl)ethyl)carbamoyl)pyrrolidin-1-yl)-3,3-dimethyl-1-oxobutan-2-yl)succinamide] |  | 1.6 nM |  | 74% |  | 1210 nM
CC(C)Nc1cc(-c2ccc3cc(C#N)cnn23)ncc1-c1nnc(N2CCN(C3CCN(C(=O)Cc4cccc5c4CN(C4CCC(=O)NC4=O)C5=O)CC3)CC2)s1 (stereo not shown) [Example 76, 7-(5-(5-(4-(1-(2-(2-(2,6-dioxopiperidin-3-yl)-1-oxoisoindolin-4-yl)acetyl)piperidin-4-yl)piperazin-1-yl)-1,3,4-thiadiazol-2-yl)-4-(isopropylamino)pyridin-2-yl)pyrrolo[1,2-b]pyridazine-3-carbonitrile] |  | 0.8 nM |  | 100% |  | 13.1 nM
CNc1cc(-c2ccc3cc(C#N)cnn23)ncc1-c1nnc(N2CC3CCC(C2)N3C2CCN(C(=O)Cc3ccc4c(c3)CN(C3CCC(=O)NC3=O)C4=O)CC2)s1 (stereo not shown) [Example 164, 7-(5-(5-(8-(1-(2-(2-(2,6-dioxopiperidin-3-yl)-1-oxoisoindolin-5-yl)acetyl)piperidin-4-yl)-3,8-diazabicyclo[3.2.1]octan-3-yl)-1,3,4-thiadiazol-2-yl)-4-(methylamino)pyridin-2-yl)pyrrolo[1,2-b]pyridazine-3-carbonitrile] |  | 0.4 nM |  | 109% |  | 5.64 nM
CNc1cc(-c2ccc3cc(C#N)cnn23)ncc1-c1nnc([C@H]2CC[C@H](N(C)C(=O)C[C@H](NC(=O)[C@@H]3C[C@@H](O)CN3C(=O)C(c3cc(C)no3)C(C)C)c3ccc(-c4scnc4C)cc3)CC2)s1 (stereo partly drawn) [Example 191, (2S,4R)—N—((S)-3-(((1r,4S)-4-(5-(6-(3-cyanopyrrolo[1,2-b]pyridazin-7-yl)-4-(methylamino)pyridin-3-yl)-1,3,4-thiadiazol-2-yl)cyclohexyl)(methyl)amino)-1-(4-(4-methylthiazol-5-yl)phenyl)-3-oxopropyl)-4-hydroxy-1-(3-methyl-2-(3-methylisoxazol-5-yl)butanoyl)pyrrolidine-2-carboxamide] |  | 1.5 nM |  | 110% |  | 48.2 nM
